Source: publication PMC10112521, “High-throughput AR dimerization assay identifies androgen disrupting chemicals and metabolites” (Frontiers in Toxicology, 2023)
Structures can show the parent of a compound that is named as a salt.

What was measured:
[1] = tested on: AR2 cells (HepG2-AR2); assay: Alamar Blue (resazurin) post hoc cell viability / cytotoxicity assay in AR2 cells; settings: spid Viability, sheet antagonist_fits; for hill_tp (Hill model top): 0 where win_model is Constant
Description: For antagonist mode and cytotoxicity data, well-level normalized response (resp) was calculated as: resp=100 * RLU−bval/pval−bval where pval is the median RLU value of the MEC positive control wells (minimum four wells).

[2] = target: T1, human AR (Homo sapiens, UniProt P10275); assay: AR2 assay, agonist mode: ligand-dependent AR homodimerization (NanoBiT luciferase complementation) in stable HepG2-AR2 cells; format: cell-based; settings: sheet agonist_fits; maximum median response;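 also: Log2 fold change of luminescence over DMSO vehicle wells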
T1 sequence (P10275 1-920) 1: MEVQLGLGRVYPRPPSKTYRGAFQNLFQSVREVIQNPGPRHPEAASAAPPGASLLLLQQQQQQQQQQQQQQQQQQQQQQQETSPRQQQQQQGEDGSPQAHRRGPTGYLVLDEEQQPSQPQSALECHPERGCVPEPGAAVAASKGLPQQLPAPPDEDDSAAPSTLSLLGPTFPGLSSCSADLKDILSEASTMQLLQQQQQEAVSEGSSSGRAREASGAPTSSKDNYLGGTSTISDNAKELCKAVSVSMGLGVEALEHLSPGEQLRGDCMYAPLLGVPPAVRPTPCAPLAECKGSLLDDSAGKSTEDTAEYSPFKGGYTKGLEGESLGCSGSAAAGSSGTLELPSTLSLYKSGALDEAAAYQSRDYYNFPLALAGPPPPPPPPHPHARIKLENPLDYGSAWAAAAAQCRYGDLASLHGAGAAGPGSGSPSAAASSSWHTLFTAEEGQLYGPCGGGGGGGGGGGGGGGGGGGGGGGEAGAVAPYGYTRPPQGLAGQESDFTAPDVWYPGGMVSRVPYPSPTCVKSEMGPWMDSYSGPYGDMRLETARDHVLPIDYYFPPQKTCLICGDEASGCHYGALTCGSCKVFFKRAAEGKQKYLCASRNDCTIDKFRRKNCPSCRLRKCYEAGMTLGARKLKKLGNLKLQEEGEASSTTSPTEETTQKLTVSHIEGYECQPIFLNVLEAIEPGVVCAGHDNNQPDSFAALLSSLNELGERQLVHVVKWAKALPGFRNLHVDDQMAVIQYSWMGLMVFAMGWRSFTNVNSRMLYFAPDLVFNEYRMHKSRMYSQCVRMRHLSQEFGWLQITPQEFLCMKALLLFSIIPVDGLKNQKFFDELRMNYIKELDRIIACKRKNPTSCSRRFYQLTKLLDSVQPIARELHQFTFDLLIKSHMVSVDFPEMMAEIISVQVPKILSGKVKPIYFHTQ
T1 sequence (P10275 1-920) 2: T1 sequence (P10275 1-920) 1

[3] = target: T1, human AR; assay: AR2 assay, antagonist mode: disruption of R1881 (10 nM)-induced AR homodimerization in HepG2-AR2 cells; format: cell-based; settings: spid AR_antagonist, sheet antagonist_fits

Compound | max_med (maximum median response) [1] | hill_tp (Hill model top) [1] | other results
Cc1c(COC(=O)[C@@H]2[C@H](/C=C(\Cl)C(F)(F)F)C2(C)C)cccc1-c1ccccc1 (racemic) [Bifenthrin] | 19.5548 | 23.386 | 
O=C(c1ccccc1)c1ccc(O)cc1O [2,4-Dihydroxybenzophenone] | 13.9578 | 7.468 | 
CCCCC(CC)COC(=O)c1ccc(O)cc1 (stereo not drawn) [2-Ethylhexylparaben] | 99.7953 | 102.21 | 
O=S(=O)(c1ccc(O)cc1)c1ccc(O)cc1 [4,4'-Sulfonyldiphenol] | 24.7063 | 39.4827 | 
CCC(C)(C)c1ccc(O)cc1 [4-(2-Methylbutan-2-yl)phenol] | 17.1743 | 12.5636 | 
CCCCCCCCCCCCc1ccc(O)cc1 [4-Dodecylphenol] | 99.7202 | 99.8404 | 
O=C(O)c1ccc(O)cc1 [4-Hydroxybenzoic acid] | 5.145 | 0 | 
CCCCCCCCCc1ccc(O)cc1 [4-Nonylphenol] | 99.78 | 100.689 | 
C#C[C@]1(O)CC[C@H]2[C@@H]3CCc4cc(O)ccc4[C@H]3CC[C@@]21C [17alpha-Ethinylestradiol] | 47.5761 | 60.3321 | 
C[C@]12CC[C@@H]3c4ccc(O)cc4CC[C@H]3[C@@H]1CC[C@@H]2O [17beta-Estradiol] | 11.6181 | 15.1874 | 
COP(=O)(NC(C)=O)SC (stereo not drawn) [Acephate] | 10.7949 | 0 | 
CC(C)(C#N)c1cc(Cn2cncn2)cc(C(C)(C)C#N)c1 [Anastrozole] | 9.832 | 0 | 
CCCCN(CC)c1c([N+](=O)[O-])cc(C(F)(F)F)cc1[N+](=O)[O-] [Benfluralin] | 17.0663 | 11.4566 | 
CCCCC(CC)COC(=O)CCCCC(=O)OCC(CC)CCCC (stereo not drawn) [Bis(2-ethylhexyl)hexanedioate] | 8.67 | 0 | 
CCCCC(CC)COC(=O)c1ccccc1C(=O)OCC(CC)CCCC (stereo not drawn) [Bis(2-ethylhexyl)phthalate] | 27.6798 | 16.491 | 
N#Cc1c(Cl)c(Cl)c(Cl)c(C#N)c1Cl [Chlorothalonil] | 85.6054 | 117.241 | 
COP(=S)(OC)Oc1nc(Cl)c(Cl)cc1Cl [Chlorpyrifos-methyl] | 15.7636 | 36.973 | 
CCN(CC)CCOc1ccc(C(=C(Cl)c2ccccc2)c2ccccc2)cc1 [Clomiphene citrate] | 99.676 | 104.376 | max_med [2]: -0.008157; max_med (maximum median response) [3]: 103.883; win_model (winning concentration-response model) [3]: Hill; hill_gw (Hill model slope) ([3]; 0 where win_model is Constant): 2.036; hill_tp (Hill model top) ([3]; 0 where win_model is Constant): 106.625
C[C@]12C[C@H](O)[C@H]3[C@@H](CCC4=CC(=O)CC[C@@]43C)[C@@H]1CC[C@@H]2C(=O)CO [Corticosterone] | -0.2958 |  | 
O=c1oc2cc(O)ccc2c2oc3cc(O)ccc3c12 [Coumestrol] | 39.9111 | 51.0591 | 
C#C[C@]1(O)CC[C@H]2[C@@H]3CCC4=Cc5oncc5C[C@]4(C)[C@H]3CC[C@@]21C [Danazol] | 99.6979 | 119.707 | 
CCOP(=S)(OCC)Oc1cc(C)nc(C(C)C)n1 [Diazinon] | 6.875 | 0 | 
O=C1C(Cl)=C(Cl)C(=O)c2ccccc21 [Dichlone, dichlone] | 100 | 121.536 | 
Clc1ccc(C(c2ccc(Cl)cc2)C(Cl)(Cl)Cl)cc1 [Dichlorodiphenyltrichloroethane] | 73.7925 | 94.5035 | 
O=C(OC1CCCCC1)c1ccccc1C(=O)OC1CCCCC1 [Dicyclohexyl phthalate] | -2.0313 |  | 

Compound | max_med (maximum median response) [1] | hill_tp (Hill model top) [1] | other results
CC/C(=C(/CC)c1ccc(O)cc1)c1ccc(O)cc1 [Diethylstilbestrol] | 99.7753 | 119.773 | 
CCCCCCOC(=O)c1ccccc1C(=O)OCCCCCC [Dihexyl phthalate] | 14.953 | 18.2229 | 
CCCCCOC(=O)c1ccccc1C(=O)OCCCCC [Dipentyl phthalate] | 14.047 | 13.5743 | 
CC(C)[C@H](C(=O)O[C@H](C#N)c1cccc(Oc2ccccc2)c1)c1ccc(Cl)cc1 [Esfenvalerate] | -0.2527 |  | 
COP(=S)(OC)Oc1ccc(SC)c(C)c1 [Fenthion] | 20.1632 | 17.5948 | 
CC(C)C(C(=O)OC(C#N)c1cccc(Oc2ccccc2)c1)c1ccc(Cl)cc1 (stereo not drawn) [Fenvalerate] | 17.5112 | 13.0316 | 
CC(C)Oc1cccc(NC(=O)c2ccccc2C(F)(F)F)c1 [Flutolanil] | 9.82 | 12.8643 | 
CCCCCC(=O)O[C@]1(C(C)=O)CC[C@H]2[C@@H]3CCC4=CC(=O)CC[C@]4(C)[C@H]3CC[C@@]21C [Hydroxyprogesterone caproate] | -5.885 |  | 
O=c1c(O)c(-c2ccc(O)cc2)oc2cc(O)cc(O)c12 [Kaempferol] | 36.6036 | 30.9927 | 
COCC(=O)N(c1c(C)cccc1C)C(C)C(=O)OC (stereo not drawn) [Metalaxyl] | 11.6523 | 11.8758 | 
CCc1cccc(C)c1N(C(=O)CCl)C(C)COC (stereo not drawn) [Metolachlor] | 26.908 | 20.923 | 
CSc1nnc(C(C)(C)C)c(=O)n1N [Metribuzin] | 29.1814 | 43.0001 | 
CCCCC(CC)COC(=O)c1ccccc1C(=O)O (stereo not drawn) [Mono(2-ethylhexyl) phthalate] | 10.2899 | 5.023 | 
C[Si]1(C)O[Si](C)(C)O[Si](C)(C)O[Si](C)(C)O1 [Octamethylcyclotetrasiloxane] | 28.4969 | 38.8496 | 
CCCCC(CC)CN1C(=O)[C@@H]2[C@H](C1=O)[C@@H]1C=C[C@H]2C1 (stereo partly drawn) [Octylbicycloheptenedicarboximide] | 1.86 | 0 | 
Oc1c(Cl)c(Cl)c(Cl)c(Cl)c1Cl [Pentachlorophenol] | 53.4588 | 63.2778 | 
CC(C)=CC1C(C(=O)OCc2cccc(Oc3ccccc3)c2)C1(C)C (stereo not drawn) [Phenothrin] | 11.6591 | 28.3579 | 
COP(=S)(OC)SCN1C(=O)c2ccccc2C1=O [Phosmet] | 21.0825 | 27.9412 | 
C#CC(C)(C)NC(=O)c1cc(Cl)cc(Cl)c1 [Propyzamide] | 10.1701 | 0 | 
O=C(c1ccc(OCCN2CCCCC2)cc1)c1c(-c2ccc(O)cc2)sc2cc(O)ccc12 [Raloxifene hydrochloride] | 99.7657 |  | 
CC(C)(C)C(O)(CCc1ccc(Cl)cc1)Cn1cncn1 (stereo not drawn) [Tebuconazole] | 20.78 | 45.6531 | 
CCC[CH2][Sn]([Cl])([CH2]CCC)[CH2]CCC [Tributylchlorostannane] | 99.8606 | 99.7567 | 
Clc1ccc(Cl)cc1 [p-Dichlorobenzene] | 4.77 |  | 
Abamectin | 81.1222 |  | 
